Active and inactive are the calls of the source. No cut-off for these calls is given here.
Assays:
NCI-H460 [1] = assay: Anti-tumor activity against human NCI-H460 cells assessed as cell viability incubated for 48 hrs by CCK-8 assay; assay type: functional, cell-based; conditions: NCI-H460, 48 h
NCI-H460 [2] = assay: Inhibition of epithelial mesenchymal transition in human NCI-H460 cells assessed as decrease in N-cadherin protein expression by Western blotting analysis; assay type: functional, cell-based
NCI-H460 [3] = assay: Inhibition of epithelial mesenchymal transition in human NCI-H460 cells assessed as increase in E-cadherin protein expression by Western blotting analysis; assay type: functional, cell-based
NCI-H460 [4] = assay: Induction of apoptosis in human NCI-H460 cells assessed as apoptosis rate at 500 nM incubated for 24 hrs by annexin V-FITC/PI staining based flow cytometry analysis relative to control; assay type: functional
NCI-H460 [5] = assay: Upregulation of gamma-H2AX expression in human NCI-H460 cells by Western blot analysis; assay type: functional, cell-based
NCI-H460 [6] = assay: Antitumor activity against human NCI-H460 cells xenografted in athymic nude mouse assessed as change in tumor weight at 10 mg/kg, iv administered every 2 days and measured after 2 weeks; assay type: functional, organism-based
NCI-H460 [7] = assay: Antitumor activity against human NCI-H460 cells xenografted in athymic nude mouse assessed as change in tumor volume at 10 mg/kg, iv administered every 2 days and measured after 2 weeks; assay type: functional, organism-based
NCI-H460 [8] = assay: Antitumor activity against human NCI-H460 cells xenografted in athymic nude mouse assessed as tumor growth inhibition at 10 mg/kg, iv administered every 2 days and measured after 2 weeks; assay type: functional; conditions: NCI-H460, 336 h, read-out: TGI
[9] = Toxicity in male athymic nude mouse assessed as alveolar wall hyperplasia at 10 mg/kg, iv administered every 2 days and measured after 2 weeks by H and E staining based analysis; assay type: organism-based; conditions: in vivo, 336 h
[10] = Antiproliferative activity against rat PA-III cells incubated for 24 hrs by MTT assay; assay type: functional, cell-based
PC-3M = assay: Antiproliferative activity against human PC-3M cells incubated for 24 hrs by MTT assay; assay type: functional, cell-based
HT-29 = assay: Anti-tumor activity against human HT-29 cells assessed as cell viability incubated for 48 hrs by CCK-8 assay; assay type: functional, cell-based
MCF7 = assay: Anti-tumor activity against human MCF7 cells assessed as cell viability incubated for 48 hrs by CCK-8 assay; assay type: functional, cell-based
HeLa = assay: Anti-tumor activity against human HeLa cells assessed as cell viability incubated for 48 hrs by CCK-8 assay; assay type: functional, cell-based
NCI-H460 [11] = assay: Inhibition of colony formation in human NCI-H460 cells assessed as reduction in colony formation rate upto 12.5 uM incubated for 14 days by crystal violet staining based analysis; assay type: functional, cell-based; conditions: time 14.0 day
NCI-H460 [12] = assay: Anti-migratory activity against human NCI-H460 cells assessed as inhibition of cell migration at 500 nM measured for 48 hrs by wound healing assay; assay type: functional, cell-based
NCI-H460 [13] = assay: Inhibition of cell invasion in human NCI-H460 cells assessed as decrease in number of invading cells at 500 nM incubated for 48 hrs by transwell assay; assay type: functional, cell-based
NCI-H460 [14] = assay: Induction of apoptosis in human NCI-H460 cells assessed as increase in BAX level at 500 nM incubated for 24 hrs by Western blot analysis; assay type: functional, cell-based
NCI-H460 [15] = assay: Induction of apoptosis in human NCI-H460 cells assessed as increase in caspase-3 level at 500 nM incubated for 24 hrs by Western blot analysis; assay type: functional, cell-based
NCI-H460 [16] = assay: Induction of apoptosis in human NCI-H460 cells assessed as downregulation of Bcl2 expression at 500 nM incubated for 24 hrs by Western blot analysis; assay type: functional, cell-based
NCI-H460 [17] = assay: Induction of DNA damage in human NCI-H460 cells assessed as increase in gammaH2AX positive cells by DAPI staining based confocal laser scanning microscopic analysis; assay type: functional, cell-based
NCI-H460 [18] = assay: Induction of DNA damage in human NCI-H460 cells assessed as increase in gammaH2AX positive cells by immunofluorescence analysis; assay type: functional, cell-based
[19] = Hemolytic activity in BALB/c mouse Red blood cells assessed as effect on morphological structure at 10 to 100 uM incubated for 2 hrs; assay type: toxicity, cell-based; conditions: erythrocyte, dose 10-100 µM
[20] = Hemolytic activity in BALB/c mouse Red blood cells assessed as hemolysis at 10 to 100 uM incubated for 2 hrs; assay type: toxicity, cell-based, Erythrocyte; conditions: dose 10-100 µM, read-out: Activity

Structure (SMILES)	IC50 (NCI-H460 [1]) [µM]	other results
CC(C)(C)c1ccc(-c2ncc3ccccc3c2[Se]c2ccccc2)cc1	40.8	–
c1ccc([Se]c2c(-c3cc4ccccc4c4ccccc34)ncc3ccccc23)cc1	> 100	–
COc1ccc(-c2ncc3ccccc3c2[Se]c2ccccc2)cc1	> 100	–
N#Cc1ccccc1[Se]c1c(-c2ccccc2)ncc2ccccc12	> 100	–
COc1ccc([Se]c2c(-c3ccccc3)ncc3cc(C)ccc23)cc1	16.6	–
COc1ccc([Se]c2c(-c3ccccc3)ncc3sccc23)cc1	33.6	–
c1ccc([Se]c2c(-c3ccccc3)ncc3sccc23)cc1	65.6	–
Cc1ccc([Se]c2c(-c3ccccc3)ncc3ccccc23)cc1	52	–
COc1ccc([Se]c2c(-c3ccccc3)ncc3cc(OC)ccc23)cc1	8.58	–
CC[C@@]1(O)C(=O)OCc2c1cc1n(c2=O)Cc2cc3ccccc3nc2-1 [CAMPTOTHECIN]	2.46	inhibition (NCI-H460 [2]): Active; inhibition (NCI-H460 [3]): Active; Activity (NCI-H460 [4]): 39.1%; Activity (NCI-H460 [5]): Active; Activity (NCI-H460 [6]): Active; Activity (NCI-H460 [7]): Active; inhibition in vivo at 10 mg/kg (NCI-H460 [8]): 66%; Activity [9]: Toxic
Cc1ccc(-c2ncc3ccccc3c2[Se]c2ccccc2)cc1	> 100	–
COc1cc2cnc(-c3ccccc3)c([Se]c3ccccc3)c2cc1OC	42.3	–
COc1ccc([Se]c2c(-c3ccc(Br)cc3)ncc3ccccc23)cc1	> 100	–
O=P1(N(CCCl)CCCl)NCCCO1 (configuration not stated) [CYCLOPHOSPHAMIDE ANHYDROUS]	114	–
Fc1ccc(-c2ncc3ccccc3c2[Se]c2ccccc2)cc1	> 100	–
N#Cc1ccc([Se]c2c(-c3ccccc3)ncc3ccccc23)cc1	> 100	–
COc1ccc([Se]c2c(-c3ccccc3)ncc3cc4c(cc23)OCO4)cc1	> 100	–
c1ccc([Se]c2c(-c3ccsc3)ncc3ccccc23)cc1	> 100	–
Brc1ccc(-c2ncc3ccccc3c2[Se]c2ccccc2)cc1	> 100	–
CCCCc1ncc2ccccc2c1[Se]c1ccccc1	> 100	–
Brc1ccc2c([Se]c3ccccc3)c(-c3ccccc3)ncc2c1	86.2	–
Clc1ccc2c([Se]c3ccccc3)c(-c3ccccc3)ncc2c1	99.2	–
COc1ccc([Se]c2c(-c3ccccc3)ncc3cc(Cl)ccc23)cc1	93.3	–

Structure (SMILES)	IC50 (NCI-H460 [1]) [µM]	other results
CN(C)c1ccc([Se]c2c(-c3ccccc3)ncc3ccccc23)cc1	> 100	–
Brc1c2ccccc2c(-c2ncc3ccccc3c2[Se]c2ccccc2)c2ccccc12	> 100	–
COc1ccc([Se]c2c(-c3ccc4ccccc4c3)ncc3ccccc23)cc1	> 100	–
FC(F)(F)c1ccccc1[Se]c1c(-c2ccccc2)ncc2ccccc12	68	–
Cc1ccc(-c2cc(C(F)(F)F)nn2-c2ccc(S(N)(=O)=O)cc2)cc1 [CELECOXIB]	–	IC50 [10]: > 20 µM; IC50 (PC-3M): > 20 µM
c1ccc([Se]c2c(-c3ccc(-c4cc(-c5ccc(-c6ncc7ccccc7c6[Se]c6ccccc6)cc5)cc(-c5ccc(-c6ncc7ccccc7c6[Se]c6ccccc6)cc5)c4)cc3)ncc3ccccc23)cc1	> 100	–
COc1ccc([Se]c2c(-c3ccsc3)ncc3ccccc23)cc1	44.5	–
Clc1ccc([Se]c2c(-c3ccccc3)ncc3ccccc23)cc1	82	–
COc1ccc([Se]c2c(-c3ccc(Cl)cc3)ncc3ccccc23)cc1	77.3	–
N#Cc1cccc([Se]c2c(-c3ccccc3)ncc3ccccc23)c1	68	–
CC(C)(C)c1ncc2ccccc2c1[Se]c1ccccc1	> 100	–
COc1ccc([Se]c2c(-c3ccccc3)ncc3ccccc23)cc1	6.39	Activity (HT-29): inactive; Activity (MCF7): inactive; Activity (HeLa): inactive; inhibition (NCI-H460 [11]): Active; Activity (NCI-H460 [12]): Active; inhibition (NCI-H460 [13]): Active; N-cadherin expression decrease (qualitative activity) (NCI-H460 [2]): Active; inhibition (NCI-H460 [3]): Active; Activity (NCI-H460 [4]): 20.8%; Activity (NCI-H460 [14]): Active; Activity (NCI-H460 [15]): Active; Activity (NCI-H460 [16]): Active; Activity (NCI-H460 [17]): Active; Activity (NCI-H460 [18]): Active; Activity (NCI-H460 [5]): Active; Activity [19]: Non-toxic; hemolysis at 2 h, 100 µM [20]: < 1%
Brc1ccc([Se]c2c(-c3ccccc3)ncc3ccccc23)cc1	> 100	–
FC(F)(F)c1ccc2c([Se]c3ccccc3)c(-c3ccccc3)ncc2c1	51.9	–
CCCCc1ncc2ccccc2c1[Se]c1ccc(OC)cc1	> 100	–
Fc1ccc2c([Se]c3ccccc3)c(-c3ccccc3)ncc2c1	> 100	–
FC(F)(F)c1cccc([Se]c2c(-c3ccccc3)ncc3ccccc23)c1	47.2	–
c1ccc([Se]c2c(-c3ccccc3)ncc3ccccc23)cc1	61.6	–
COc1ccc([Se]c2c(-c3ccccc3)ncc3cc(F)ccc23)cc1	39	–
Clc1cccc([Se]c2c(-c3ccccc3)ncc3ccccc23)c1	56.7	–
c1ccc([Se]c2c(-c3ccc4ccccc4c3)ncc3ccccc23)cc1	54.8	–
c1ccc([Se]c2c(-c3ccc(-c4ncc5ccccc5c4[Se]c4ccccc4)cc3)ncc3ccccc23)cc1	> 100	–
COc1cccc([Se]c2c(-c3ccccc3)ncc3ccccc23)c1	56.5	–

Structure (SMILES)	IC50 (NCI-H460 [1]) [µM]	other results
Fc1cccc([Se]c2c(-c3ccccc3)ncc3ccccc23)c1	> 100	–
c1ccc([Se]c2c(C3CC3)ncc3ccccc23)cc1	> 100	–
c1ccc([Se]c2c(-c3c4ccccc4c(-c4ncc5ccccc5c4[Se]c4ccccc4)c4ccccc34)ncc3ccccc23)cc1	> 100	–
COc1ccc([Se]c2c(-c3ccccc3)ncc3cc(Br)ccc23)cc1	94.8	–
COc1ccc2c([Se]c3ccccc3)c(-c3ccccc3)ncc2c1	76.6	–
c1ccc([Se]c2c(-c3ccccc3)ncc3cccnc23)cc1	42.3	–
COc1ccc([Se]c2c(-c3ccccc3)ncc3cc(C(F)(F)F)ccc23)cc1	42.6	–
Cc1ccc2c([Se]c3ccccc3)c(-c3ccccc3)ncc2c1	> 100	–
COc1ccc([Se]c2c(-c3ccccc3)ncc3cccc(F)c23)cc1	53.2	–
FC(F)(F)c1ccc([Se]c2c(-c3ccccc3)ncc3ccccc23)cc1	53.6	–
Cc1ccccc1[Se]c1c(-c2ccccc2)ncc2ccccc12	61.6	–
COc1ccc([Se]c2c(-c3ccccc3)ncc3ccc(OC)cc23)cc1	5.9	Activity (HT-29): inactive; Activity (MCF7): inactive; Activity (HeLa): inactive; inhibition (NCI-H460 [11]): Active; Activity (NCI-H460 [12]): Active; inhibition (NCI-H460 [13]): Active; N-cadherin expression decrease (qualitative activity) (NCI-H460 [2]): Active; inhibition (NCI-H460 [3]): Active; Activity (NCI-H460 [4]): 31.5%; Activity (NCI-H460 [14]): Active; Activity (NCI-H460 [15]): Active; Activity (NCI-H460 [16]): Active; Activity (NCI-H460 [17]): Active; Activity (NCI-H460 [18]): Active; Activity (NCI-H460 [5]): Active; Activity [19]: Non-toxic; hemolysis at 2 h, 100 µM [20]: < 1%
C[Se]c1c(-c2ccccc2)ncc2ccccc12	> 100	–
c1ccc([Se]c2c(-c3ccccc3)ncc3cc4c(cc23)OCO4)cc1	34.2	–
Fc1ccc([Se]c2c(-c3ccccc3)ncc3ccccc23)cc1	20.3	–
COc1ccc([Se]c2cc(-c3ncc4ccccc4c3[Se]c3ccc(OC)cc3)cc([Se]c3ccc(OC)cc3)c2N)cc1	> 100	–
Clc1ccccc1[Se]c1c(-c2ccccc2)ncc2ccccc12	> 100	–
c1ccc([Se]c2c(-c3ccc(-c4ccccc4)cc3)ncc3ccccc23)cc1	> 100	–
COc1ccccc1[Se]c1c(-c2ccccc2)ncc2ccccc12	64.2	–
Clc1ccc(-c2ncc3ccccc3c2[Se]c2ccccc2)cc1	> 100	–
Cc1cccc([Se]c2c(-c3ccccc3)ncc3ccccc23)c1	38	–
Fc1ccccc1[Se]c1c(-c2ccccc2)ncc2ccccc12	> 100	–
N#C[Se]Cc1cc(-c2ccccc2)n(-c2ccc(S(N)(=O)=O)cc2)n1	–	IC50 [10]: 5 µM
